# Several values for one entry are separate records, joined by “and”; a condition that tells them apart may be missing. Equal values may be shown once.
# Test system: CMV
# Assay: Study HDP-CDV-201: prevention or control of CMV infection in R+ HSCT recipients (efficacy)
# Assay type: in vivo, human (adult allogeneic HSCT recipients)
# Method: The clinical study of the current invention (HDP-CDV-201) was a 9-11 week randomized, placebo-controlled, double-blind, dose-escalation study (40 mg weekly [QW], 100 mg QW, 200 mg QW, 200 mg twice-weekly [BIW], and 100 mg BIW) of HDP-CDV for the prevention of CMV infection post-HCT. Treatment was initiated at the time of engraftment and continued until Week 13 post-HCT. HDP-CDV, at various doses, was active and well tolerated in the prevention CMV infection or disease.
# Clinical Studies of HDP-CDV were performed and described in detail in the following Examples. For example, HDP-CDV-201 is a placebo-controlled, dose-escalating trial in HSCT CMV (R+) recipients, evaluating the ability of HDP-CDV to prevent or control CMV infection was carried out. Five cohorts were established in which participants or subjects received either placebo or the HDP-CDV orally, in doses ranging from 40 mg weekly (QW) to 200 mg twice weekly (BIW). Subjects who were post-HSCT were enrolled at the time of engraftment and randomized to HDP-CDV or placebo (3 to 1 ratio) and received blinded therapy until approximately 100 day post-transplantation. HDP-CDV doses were 40 mg QW, 100 mg QW, 200 mg QW, 200 mg BIW and 100 mg BIW. Escalation to the next dose was decided by the data monitoring committee after review of the safety data from the previous Cohort. Subjects who developed CMV disease or CMV infection requiring pre-emptive therapy with local standard of care were discontinued from blinded therapy and followed for 4 weeks. Subjects who completed treatment with blinded therapy were followed for 8 weeks post-therapy.
# The primary endpoint was defined as the incidence of CMV disease at any time during treatment or CMV DNAemia≧200 copies/mL at the end of treatment. All subjects who received at least one dose of drug/placebo and had at least one efficacy evaluation post baseline were included in the primary analysis, regardless of their CMV DNAemia status (negative or positive) at baseline (mITT population). Results for the pooled HDP-CDV Cohorts and for each Cohort separately were analyzed versus that for pooled placebo.
# The primary efficacy measure for this study was treatment failure, defined as the occurrence of CMV infection, defined as CMV DNAemia>200 copies/mL at the End of Treatment or diagnosis of CMV disease at any time during the treatment period. For the analysis, the following definitions apply:
# For subjects who completed the treatment phase of the study, the End of Treatment was defined as the latest assessment from date of the last dose of study drug and up to 7 days for QW dosing, or the date of the last dose of study drug and up to 4 days for BIW dosing. For subjects who discontinued during the treatment phase of the study, the End of Treatment was defined as the date of the last dose of study drug.
# The time to event was defined as the period between FDD and date of first occurrence of the event of interest (inclusive). The events included onset of CMV DNAemia, onset of CMV disease, and discontinuation because of excluded anti-CMV medications. Time to event/onset was derived as (the event/onset date—FDD)+1.
# As detailed in the Statistical Analysis Plan, a modified CMV stratum was defined prior to conducting the statistical analysis based upon polymerase chain reaction (PCR) results from the central laboratory. If any positive CMV DNA value in plasma was collected before the first dose of study drug (including Screening, Pre-dose, (combined Screening/Pre-dose), CMV for stratification, and FDD), then the subject was placed into the modified CMV positive (≧100 copies/mL) stratum, otherwise the subject was in the modified CMV negative stratum. […]
# [1] = 200 mg QW, modified CMV negative stratum
# [2] = 200 mg QW, whole study period, CMV DNA negative at baseline
# [3] = All HDP-CDV, CMV modified strata: negative
# [4] = All HDP-CDV, CMV modified strata: positive
compound,measurement,setting,value
CCCCCCCCCCCCCCCCOCCCOP(=O)(O)COC(CO)Cn1ccc(N)nc1=O (stereo not drawn) [HDP-CDV],Subjects Receiving Antiviral Therapy and/or had CMV disease,"200 mg QW, mITT",7 (17.9%) subjects (%)
same,Subjects without a CMV event,"200 mg QW, mITT",32 (82.1%) subjects (%)
same,"Time to Antiviral Therapy, Median","200 mg QW, mITT",40.0 days
same,Rate of CMV Disease or End of Treatment CMV Infection (≧200 copies/ml),"200 mg QW, mITT, missing=infection",31% and 30.8%
same,Rate of CMV DNAemia ≧1000 copies/mL during the treatment period,"200 mg QW, mITT, post hoc",18% and 17.9%
same,"Time to Antiviral Therapy, Mean","200 mg QW, mITT, censored values not included",38.1 days
same,"% CMV Event Rate: Incidence of CMV DNAemia >100 copies/mL During Treatment (Fisher analysis, ref 14.3.3.2.1)",[1],7 (24.1%) subjects (%)
same,"% CMV Event Rate: Incidence of CMV DNAemia ≧1,000 copies/mL at any time during treatment",[1],2 (6.9%) subjects (%)
same,"Combined CMV event rate (CMV disease, viremia requiring treatment, viremia ≧1000 copies/mL)",[1],13.8%
same,"Subjects Who Had CMV-related Event (CMV disease, CMV DNAemia ≧1,000 c/mL or initiation of anti-CMV treatment)",[1],4 (13.8%) subjects (%)
same,Subjects without a CMV-related event,[1],25 (86.2%) subjects (%)
same,Developed CMV DNAemia (≧100 copies/mL) during the treatment period,"200 mg QW, plasma CMV DNA negative at baseline, mITT",7 (23.3%) N(%)
same,"Time to CMV DNAemia (≧100 copies/mL), Median","200 mg QW, treatment period, CMV DNA negative at baseline",15.0 days
same,"Time to CMV DNAemia (≧100 copies/mL), Mean","200 mg QW, treatment period, CMV DNA negative at baseline, censored values not included",22.6 days
same,Number of Subjects who had CMV DNAemia (≧100 copies/mL) by the end of study,[2],11
same,"Time to CMV DNAemia (≧100 copies/mL), Mean",[2],36.3 days
same,"Time to CMV DNAemia (≧100 copies/mL), Median",[2],36.0 days
same,subjects with emergence of viremia between end of treatment and end of treatment-free follow-up,8 weeks follow-up,less than 10%
same,"% CMV Event Rate, primary: CMV DNAemia >200 copies/mL at end of treatment OR CMV disease during treatment","All HDP-CDV (N = 133), CMV modified strata: negative",21 (15.8%) subjects (%)
same,"% CMV Event Rate, primary: CMV DNAemia >200 copies/mL at end of treatment OR CMV disease during treatment","All HDP-CDV (N = 162), aGVHD strata: negative",41 (25.3%) subjects (%)
same,"% CMV Event Rate, primary: CMV DNAemia >200 copies/mL at end of treatment OR CMV disease during treatment","All HDP-CDV (N = 171), mITT",43 (25.1%) subjects (%)
same,Difference (HDP-CDV minus placebo) in infection rate,[3],−14.0%
same,"Difference (HDP-CDV minus placebo) in rate of CMV DNAemia ≧1,000 copies/ml",[3],−25.9%
same,"Rate of CMV DNAemia ≧1,000 copies/ml during the treatment period",[3],6.0%
same,Rate of CMV Disease or End of Treatment CMV Infection,[3],15.8%
same,"Difference (HDP-CDV minus placebo) in rate of CMV DNAemia ≧1,000 copies/mL",[4],−28.1%
same,"Rate of CMV DNAemia ≧1,000 copies/mL during the treatment period",[4],55.3%
same,Rate of CMV Disease or End of Treatment CMV Infection,"All HDP-CDV, aGVHD randomization strata: negative",25.3%
same,Difference (HDP-CDV minus placebo) in infection rate,"All HDP-CDV, aGVHD strata: negative",−6.8%
same,Difference (HDP-CDV minus placebo) in rate of CMV DNAemia ≧1000 copies/mL,"All HDP-CDV, mITT",−25.4%
same,Difference (HDP-CDV minus placebo) in rate of CMV disease or end of treatment CMV infection,"All HDP-CDV, mITT",−12.1%
same,Rate of CMV DNAemia ≧1000 copies/mL during the treatment period,"All HDP-CDV, mITT, post hoc",17.0%
same,"% CMV Event Rate: Incidence of CMV DNAemia ≧1,000 copies/mL at any time during treatment","All HDP-CDV, modified CMV negative stratum",8 (6.0%) subjects (%)
same,CMV disease/infection rate (primary endpoint),"All cohorts combined, aGVHD positive strata (2 of 9)",22.2%
same,CMV DNAemia rate over whole study period,"Cohorts 100 mg QW, 200 mg QW and 100 mg BIW",~35%
same,"% CMV Event Rate, primary: CMV DNAemia >200 copies/mL at end of treatment OR CMV disease during treatment","Combined 100 mg QW, 200 mg BIW, 100 mg BIW (N = 86), CMV modified strata: negative",8 (9.3%) subjects (%)
same,Rate of CMV DNAemia ≧1000 copies/mL during the treatment period,"Exploratory analysis, cohorts that met endpoint (200 mg QW, 200 mg BIW, 100 mg BIW combined), mITT",11% and 10.9%
same,Difference (HDP-CDV minus placebo) in rate of CMV DNAemia ≧1000 copies/mL,"Exploratory analysis, cohorts that met endpoint, mITT",−23.2%
same,"Incidence of composite endpoint (initiation of anti-CMV therapy or CMV disease or CMV DNAemia >1,000 copies/mL)",Higher doses (≧200 mg QW),less than 15%
same,Incidence of CMV disease or initiation of anti-CMV preemptive therapy,"Pooled HDP-CDV, mITT",22% and 21.6%
same,overall rates of CMV DNAemia detectable at any time during treatment,across doses of 100 mg QW and higher,17.4 to 23.8%
same,subjects who developed CMV disease,doses of 100 mg QW or higher (4/146),2.7%
same,subjects who developed CMV disease,doses of 200 mg per week or higher (1/119),0.8%
same,CMV disease/infection rate (primary endpoint),"doses ≧100 mg QW combined, aGVHD positive strata (1 out of 7)",14.3%
same,"failure rate, exploratory endpoint","pooled 100 mg QW, 200 mg BIW, 100 mg BIW, CMV negative stratum (8 of 86)",9%
